Measurements from ChEMBL document CHEMBL4800729 (2021).

Assays:
[1] = biological target: Carbonic anhydrase 2 (Homo sapiens) (UniProt P00918); experiment: Inhibition of Carbonic Anhydrase II at compound concentration of 10.0 uM in the Eurofins-Panlabs enzyme assay (Eurofins_assay_112020); set-up: substrate with concentration; details: Compound concentration 10.0 uM
[2] = biological target: Tyrosine-protein kinase ABL1 (Homo sapiens) (UniProt P00519); experiment: Abl(h) Millipore kinase panel; details: Compound concentration 1.0 uM
[3] = biological target: NUAK family SNF1-like kinase 1 (Homo sapiens) (UniProt O60285); experiment: ARK5(h) Millipore kinase panel; details: Compound concentration 1.0 uM
ATR/ATRIP (Homo sapiens) = ATR/ATRIP (Homo sapiens) (UniProt Q13535+Q8WXE1); experiment: ATR/ATRIP(h) Millipore kinase panel; assay type: protein-complex assay; details: Compound concentration 1.0 uM
[4] = biological target: Protein-tyrosine kinase 6 (Homo sapiens) (UniProt Q13882); experiment: BRK(h) Millipore kinase panel; details: Compound concentration 1.0 uM
[5] = biological target: Serine/threonine-protein kinase BRSK1 (Homo sapiens) (UniProt Q8TDC3); experiment: BrSK1(h) Millipore kinase panel; details: Compound concentration 1.0 uM
[6] = biological target: Calcium/calmodulin-dependent protein kinase type IV (Homo sapiens) (UniProt Q16566); experiment: CaMKIV(h) Millipore kinase panel; details: Compound concentration 1.0 uM
[7] = biological target: Cyclin-dependent kinase-like 1 (Homo sapiens) (UniProt Q00532); experiment: CDKL1(h) Millipore kinase panel; details: Compound concentration 1.0 uM
[8] = biological target: Casein kinase I isoform gamma-2 (Homo sapiens) (UniProt P78368); experiment: CK1gamma2(h) Millipore kinase panel; details: Compound concentration 1.0 uM
[9] = biological target: Casein kinase I isoform gamma-1 (Homo sapiens) (UniProt Q9HCP0); experiment: CK1gamma1(h) Millipore kinase panel; details: Compound concentration 1.0 uM
[10] = biological target: Dual specificity protein kinase CLK4 (Homo sapiens) (UniProt Q9HAZ1); experiment: CLK4(h) Millipore kinase panel; details: Compound concentration 1.0 uM
[11] = biological target: Proto-oncogene tyrosine-protein kinase Src (Homo sapiens) (UniProt P12931); experiment: cSRC(h) Millipore kinase panel; details: Compound concentration 1.0 uM
[12] = biological target: Death-associated protein kinase 1 (Homo sapiens) (UniProt P53355); experiment: DAPK1(h) Millipore kinase panel; details: Compound concentration 1.0 uM
[13] = biological target: Ephrin type-B receptor 4 (Homo sapiens) (UniProt P54760); experiment: EphB4(h) Millipore kinase panel; details: Compound concentration 1.0 uM
[14] = biological target: Vascular endothelial growth factor receptor 3 (Homo sapiens) (UniProt P35916); experiment: Flt4(h) Millipore kinase panel; details: Compound concentration 1.0 uM
[15] = biological target: Beta-adrenergic receptor kinase 1 (Homo sapiens) (UniProt P25098); experiment: GRK2(h) Millipore kinase panel; details: Compound concentration 1.0 uM
[16] = biological target: G protein-coupled receptor kinase 5 (Homo sapiens) (UniProt P34947); experiment: GRK5(h) Millipore kinase panel; details: Compound concentration 1.0 uM
[17] = biological target: Glycogen synthase kinase-3 alpha (Homo sapiens) (UniProt P49840); experiment: GSK3alpha(h Millipore kinase panel; details: Compound concentration 1.0 uM
[18] = biological target: Serine/threonine-protein kinase haspin (Homo sapiens) (UniProt Q8TF76); experiment: Haspin(h) Millipore kinase panel; details: Compound concentration 1.0 uM
[19] = biological target: Tyrosine-protein kinase HCK (Homo sapiens) (UniProt P08631); experiment: Hck(h) Millipore kinase panel; details: Compound concentration 1.0 uM
[20] = biological target: Homeodomain-interacting protein kinase 3 (Homo sapiens) (UniProt Q9H422); experiment: HIPK3(h) Millipore kinase panel; details: Compound concentration 1.0 uM
[21] = biological target: Tyrosine-protein kinase JAK2 (Homo sapiens) (UniProt O60674); experiment: JAK2(h) Millipore kinase panel; details: Compound concentration 1.0 uM
[22] = biological target: Serine/threonine-protein kinase MARK1 (Homo sapiens) (UniProt Q9P0L2); experiment: MARK1(h) Millipore kinase panel; details: Compound concentration 1.0 uM
[23] = biological target: Ribosomal protein S6 kinase alpha-4 (Homo sapiens) (UniProt O75676); experiment: MSK2(h) Millipore kinase panel; details: Compound concentration 1.0 uM
[24] = biological target: Serine/threonine-protein kinase 38-like (Homo sapiens) (UniProt Q9Y2H1); experiment: NDR2(h) Millipore kinase panel; details: Compound concentration 1.0 uM
[25] = biological target: NUAK family SNF1-like kinase 2 (Homo sapiens) (UniProt Q9H093); experiment: NUAK2(h) Millipore kinase panel; details: Compound concentration 1.0 uM
[26] = biological target: Serine/threonine-protein kinase PAK 2 (Homo sapiens) (UniProt Q13177); experiment: PAK2(h) Millipore kinase panel; details: Compound concentration 1.0 uM
[27] = biological target: Serine/threonine-protein kinase PAK 4 (Homo sapiens) (UniProt O96013); experiment: PAK4(h) Millipore kinase panel; details: Compound concentration 1.0 uM
[28] = biological target: Serine/threonine-protein kinase MARK2 (Homo sapiens) (UniProt Q7KZI7); experiment: PAR-1Balpha(h) Millipore kinase panel; details: Compound concentration 1.0 uM
[29] = biological target: [Pyruvate dehydrogenase (acetyl-transferring)] kinase isozyme 4, mitochondrial (Homo sapiens) (UniProt Q16654); experiment: PDHK4(h) Millipore kinase panel; details: Compound concentration 1.0 uM
[30] = biological target: Phosphatidylinositol 4-phosphate 5-kinase type-1 gamma (Homo sapiens) (UniProt O60331); experiment: PIP5K1g(h) Millipore kinase panel; details: Compound concentration 1.0 uM
[31] = biological target: RAC-beta serine/threonine-protein kinase (Homo sapiens) (UniProt P31751); experiment: PKBbeta(h) Millipore kinase panel; details: Compound concentration 1.0 uM
[32] = biological target: Serine/threonine-protein kinase Sgk3 (Homo sapiens) (UniProt Q96BR1); experiment: SGK3(h) Millipore kinase panel; details: Compound concentration 1.0 uM
[33] = biological target: Mitogen-activated protein kinase kinase kinase 7 (Homo sapiens) (UniProt O43318); experiment: TAK1(h) Millipore kinase panel; details: Compound concentration 1.0 uM
[34] = biological target: Mitogen-activated protein kinase kinase kinase 20 (Homo sapiens) (UniProt Q9NYL2); experiment: ZAK(h) Millipore kinase panel; details: Compound concentration 1.0 uM
[35] = biological target: 3',5'-cyclic-AMP phosphodiesterase 4D (Homo sapiens) (UniProt Q08499); experiment: Inhibition of Phosphodiesterase PDE4D2 at 10 µM in the Eurofins-Panlabs enzyme assay (Eurofins_assay_154420); set-up: substrate with concentration; details: Compound concentration 10.0 uM
[36] = biological target: 5-hydroxytryptamine receptor 6 (Homo sapiens, UniProt P50406); details: Compound concentration 10.0 uM
[37] = biological target: Sodium-dependent noradrenaline transporter (Homo sapiens) (UniProt P23975); details: Compound concentration 10.0 uM
[38] = biological target: Kappa-type opioid receptor (Homo sapiens) (UniProt P41145); details: Compound concentration 10.0 uM
[39] = biological target: Adenosine receptor A1 (Homo sapiens) (UniProt P30542); details: Compound concentration 10.0 uM
D(1A) dopamine receptor = D(1A) dopamine receptor (Homo sapiens, UniProt P21728); details: Compound concentration 10.0 uM
[40] = biological target: D(3) dopamine receptor (Homo sapiens) (UniProt P35462); details: Compound concentration 10.0 uM
[41] = biological target: GABA-A receptor; anion channel (Rattus norvegicus) (UniProt O09028+P15431+P18506+P18508+P19969+P20236+P23574+P23576+P28471+P28473+P30191+P62813+P63079+P63138+Q91ZM7+Q9ES14); details: Compound concentration 10.0 uM
[42] = biological target: Muscarinic acetylcholine receptor M2 (Homo sapiens) (UniProt P08172); details: Compound concentration 10.0 uM
[43] = biological target: Kappa-type opioid receptor (Homo sapiens) (UniProt P41145); details: Compound concentration 10.0 uM; remark: listed apart in the source
[44] = biological target: cGMP-specific 3',5'-cyclic phosphodiesterase (Homo sapiens) (UniProt O76074); details: Compound concentration 10.0 uM
[45] = biological target: B1 bradykinin receptor (Homo sapiens) (UniProt P46663); details: Compound concentration 10.0 uM
Chain of B1 bradykinin receptor (Homo sapiens) (P46663 whole entry): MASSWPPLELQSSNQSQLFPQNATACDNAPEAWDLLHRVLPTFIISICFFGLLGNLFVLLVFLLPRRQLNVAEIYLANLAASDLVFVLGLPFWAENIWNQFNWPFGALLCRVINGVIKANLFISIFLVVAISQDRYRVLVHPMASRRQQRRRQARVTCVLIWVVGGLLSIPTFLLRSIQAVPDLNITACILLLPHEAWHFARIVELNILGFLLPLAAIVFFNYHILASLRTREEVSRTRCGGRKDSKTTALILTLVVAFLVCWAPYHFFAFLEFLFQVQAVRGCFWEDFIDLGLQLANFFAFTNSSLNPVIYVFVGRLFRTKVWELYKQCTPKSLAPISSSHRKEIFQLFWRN

Chain of Kappa-type opioid receptor (Homo sapiens) (P41145 whole entry): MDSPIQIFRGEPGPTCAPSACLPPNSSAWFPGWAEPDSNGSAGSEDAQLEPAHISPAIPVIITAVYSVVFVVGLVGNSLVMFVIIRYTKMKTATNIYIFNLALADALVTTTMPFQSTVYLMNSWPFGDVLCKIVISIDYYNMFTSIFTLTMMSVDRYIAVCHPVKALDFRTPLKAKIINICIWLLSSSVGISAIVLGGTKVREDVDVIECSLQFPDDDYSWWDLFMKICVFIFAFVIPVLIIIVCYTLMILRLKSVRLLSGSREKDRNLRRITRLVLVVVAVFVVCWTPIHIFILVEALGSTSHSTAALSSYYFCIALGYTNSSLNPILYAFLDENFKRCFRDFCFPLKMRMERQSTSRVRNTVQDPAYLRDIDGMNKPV
Chain of Casein kinase I isoform gamma-2 (Homo sapiens) (P78368 whole entry, looked up, canonical isoform): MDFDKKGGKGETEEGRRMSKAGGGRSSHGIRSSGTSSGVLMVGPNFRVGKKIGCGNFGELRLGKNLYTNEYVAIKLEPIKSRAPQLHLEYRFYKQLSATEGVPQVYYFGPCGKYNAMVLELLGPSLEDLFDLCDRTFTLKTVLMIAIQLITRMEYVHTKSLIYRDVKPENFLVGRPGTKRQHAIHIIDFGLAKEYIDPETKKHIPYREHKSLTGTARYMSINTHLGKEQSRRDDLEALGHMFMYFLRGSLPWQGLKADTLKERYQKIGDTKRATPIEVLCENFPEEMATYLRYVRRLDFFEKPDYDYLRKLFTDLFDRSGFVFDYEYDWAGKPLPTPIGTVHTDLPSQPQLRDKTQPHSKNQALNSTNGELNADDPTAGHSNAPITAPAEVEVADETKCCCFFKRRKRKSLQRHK
Chain of Beta-adrenergic receptor kinase 1 (Homo sapiens) (P25098 whole entry): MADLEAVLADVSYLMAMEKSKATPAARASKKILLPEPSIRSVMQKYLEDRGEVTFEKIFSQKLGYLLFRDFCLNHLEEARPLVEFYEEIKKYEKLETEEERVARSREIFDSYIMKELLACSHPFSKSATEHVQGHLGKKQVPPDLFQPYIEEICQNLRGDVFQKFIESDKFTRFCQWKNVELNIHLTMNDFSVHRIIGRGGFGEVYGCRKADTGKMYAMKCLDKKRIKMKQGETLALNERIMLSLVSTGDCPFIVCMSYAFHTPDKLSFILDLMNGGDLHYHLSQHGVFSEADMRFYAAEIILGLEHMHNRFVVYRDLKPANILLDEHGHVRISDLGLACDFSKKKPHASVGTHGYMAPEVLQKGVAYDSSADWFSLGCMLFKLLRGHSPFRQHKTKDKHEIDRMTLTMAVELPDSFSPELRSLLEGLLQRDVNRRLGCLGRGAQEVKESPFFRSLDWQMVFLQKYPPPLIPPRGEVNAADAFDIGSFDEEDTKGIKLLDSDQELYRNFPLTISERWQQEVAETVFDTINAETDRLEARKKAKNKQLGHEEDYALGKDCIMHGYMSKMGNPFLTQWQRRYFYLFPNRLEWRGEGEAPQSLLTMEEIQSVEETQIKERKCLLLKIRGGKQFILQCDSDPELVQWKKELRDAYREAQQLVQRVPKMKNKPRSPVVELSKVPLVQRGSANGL
Chain of Mitogen-activated protein kinase kinase kinase 7 (Homo sapiens) (O43318 whole entry): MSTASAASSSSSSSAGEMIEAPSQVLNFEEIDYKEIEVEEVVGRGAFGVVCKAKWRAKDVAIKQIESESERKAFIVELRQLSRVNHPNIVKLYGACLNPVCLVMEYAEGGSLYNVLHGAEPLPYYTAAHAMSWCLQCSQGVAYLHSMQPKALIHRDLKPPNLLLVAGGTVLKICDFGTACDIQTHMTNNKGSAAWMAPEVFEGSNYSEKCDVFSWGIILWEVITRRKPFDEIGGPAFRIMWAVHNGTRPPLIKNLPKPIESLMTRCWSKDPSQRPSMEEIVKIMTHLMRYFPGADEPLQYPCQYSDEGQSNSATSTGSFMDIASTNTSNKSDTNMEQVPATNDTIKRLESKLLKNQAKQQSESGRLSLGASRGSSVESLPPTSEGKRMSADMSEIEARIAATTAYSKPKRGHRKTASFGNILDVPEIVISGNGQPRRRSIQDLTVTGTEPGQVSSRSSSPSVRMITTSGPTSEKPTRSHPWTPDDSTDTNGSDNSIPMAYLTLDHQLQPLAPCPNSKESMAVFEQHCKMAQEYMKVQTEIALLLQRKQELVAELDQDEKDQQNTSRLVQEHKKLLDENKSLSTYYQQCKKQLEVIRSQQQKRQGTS
Chain of RAC-beta serine/threonine-protein kinase (Homo sapiens) (P31751 whole entry): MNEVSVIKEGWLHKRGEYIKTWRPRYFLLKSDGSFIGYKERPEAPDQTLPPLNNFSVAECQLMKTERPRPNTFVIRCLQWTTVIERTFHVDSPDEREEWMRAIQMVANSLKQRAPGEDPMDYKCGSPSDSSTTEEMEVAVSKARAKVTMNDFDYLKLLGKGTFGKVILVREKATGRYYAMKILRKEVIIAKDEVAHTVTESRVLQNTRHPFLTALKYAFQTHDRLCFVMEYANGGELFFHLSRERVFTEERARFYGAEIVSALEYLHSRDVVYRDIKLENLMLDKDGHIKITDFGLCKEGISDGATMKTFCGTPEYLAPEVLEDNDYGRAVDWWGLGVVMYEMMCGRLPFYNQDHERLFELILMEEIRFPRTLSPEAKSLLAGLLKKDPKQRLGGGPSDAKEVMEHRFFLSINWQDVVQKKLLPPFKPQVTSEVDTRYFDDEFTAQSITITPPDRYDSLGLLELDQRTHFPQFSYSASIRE
Chain of NUAK family SNF1-like kinase 2 (Homo sapiens) (Q9H093 whole entry): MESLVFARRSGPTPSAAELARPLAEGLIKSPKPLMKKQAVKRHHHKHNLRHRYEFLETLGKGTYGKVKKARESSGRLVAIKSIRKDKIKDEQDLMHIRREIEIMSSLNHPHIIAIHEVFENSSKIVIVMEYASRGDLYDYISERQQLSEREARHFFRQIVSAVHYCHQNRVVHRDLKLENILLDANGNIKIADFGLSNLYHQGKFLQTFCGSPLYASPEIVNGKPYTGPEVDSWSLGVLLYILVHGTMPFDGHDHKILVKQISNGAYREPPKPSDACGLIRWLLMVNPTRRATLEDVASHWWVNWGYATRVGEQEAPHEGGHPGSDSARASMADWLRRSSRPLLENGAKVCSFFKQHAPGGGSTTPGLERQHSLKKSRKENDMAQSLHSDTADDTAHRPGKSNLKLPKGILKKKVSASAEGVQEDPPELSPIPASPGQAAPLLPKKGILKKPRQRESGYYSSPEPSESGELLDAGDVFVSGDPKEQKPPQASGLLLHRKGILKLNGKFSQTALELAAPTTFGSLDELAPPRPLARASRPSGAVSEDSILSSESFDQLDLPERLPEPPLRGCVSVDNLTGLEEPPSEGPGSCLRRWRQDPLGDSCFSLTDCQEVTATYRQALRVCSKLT
Chain of Adenosine receptor A1 (Homo sapiens) (P30542 whole entry): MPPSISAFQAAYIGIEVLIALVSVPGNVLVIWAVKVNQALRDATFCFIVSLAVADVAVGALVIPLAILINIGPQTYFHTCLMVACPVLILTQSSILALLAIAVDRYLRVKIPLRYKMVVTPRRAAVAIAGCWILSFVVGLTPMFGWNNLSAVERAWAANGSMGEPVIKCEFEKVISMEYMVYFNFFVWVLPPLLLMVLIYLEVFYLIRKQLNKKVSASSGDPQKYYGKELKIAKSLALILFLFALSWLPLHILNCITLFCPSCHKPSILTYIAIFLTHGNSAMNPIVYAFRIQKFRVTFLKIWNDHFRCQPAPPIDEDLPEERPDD
Chain of Tyrosine-protein kinase JAK2 (Homo sapiens) (O60674 whole entry): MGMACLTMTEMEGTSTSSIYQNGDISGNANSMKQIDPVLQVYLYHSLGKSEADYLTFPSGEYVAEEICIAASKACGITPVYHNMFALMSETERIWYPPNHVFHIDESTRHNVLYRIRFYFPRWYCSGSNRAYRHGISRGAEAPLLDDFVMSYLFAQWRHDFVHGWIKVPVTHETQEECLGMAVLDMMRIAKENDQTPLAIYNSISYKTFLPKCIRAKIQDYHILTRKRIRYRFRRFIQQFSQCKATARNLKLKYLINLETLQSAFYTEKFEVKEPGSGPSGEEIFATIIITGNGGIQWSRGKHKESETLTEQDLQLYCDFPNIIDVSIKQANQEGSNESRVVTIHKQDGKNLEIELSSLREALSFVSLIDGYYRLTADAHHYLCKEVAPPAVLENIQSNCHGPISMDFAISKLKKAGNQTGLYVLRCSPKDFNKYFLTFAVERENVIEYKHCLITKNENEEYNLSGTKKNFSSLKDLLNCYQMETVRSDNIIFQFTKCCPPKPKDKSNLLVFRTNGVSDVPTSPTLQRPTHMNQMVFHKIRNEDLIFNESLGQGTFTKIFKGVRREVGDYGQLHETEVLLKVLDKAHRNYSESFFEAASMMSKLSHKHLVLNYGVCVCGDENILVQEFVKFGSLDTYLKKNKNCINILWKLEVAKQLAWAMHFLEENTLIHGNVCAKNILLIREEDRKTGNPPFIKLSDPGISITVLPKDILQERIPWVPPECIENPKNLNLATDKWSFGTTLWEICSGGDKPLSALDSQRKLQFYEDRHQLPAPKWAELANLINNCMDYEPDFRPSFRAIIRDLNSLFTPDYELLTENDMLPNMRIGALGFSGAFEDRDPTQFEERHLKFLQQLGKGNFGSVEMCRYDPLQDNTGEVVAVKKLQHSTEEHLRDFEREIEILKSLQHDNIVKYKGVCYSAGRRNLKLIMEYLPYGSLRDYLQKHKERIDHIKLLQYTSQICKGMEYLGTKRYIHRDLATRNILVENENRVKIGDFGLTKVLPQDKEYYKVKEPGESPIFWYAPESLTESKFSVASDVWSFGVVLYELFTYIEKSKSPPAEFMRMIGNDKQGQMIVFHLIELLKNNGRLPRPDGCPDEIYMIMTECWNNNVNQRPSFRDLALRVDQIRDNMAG

CC[C@@H](Nc1c(C#N)c(-c2ccc(-c3cccc(C)c3F)cc2)nc2cnccc12)C(=O)O [BAY-091]
inhibition [1]: -6% | inhibition [2]: 12.1% | inhibition [3]: 4.55% | inhibition (ATR/ATRIP (Homo sapiens)): 16.2% | inhibition [4]: 8.07% | inhibition [5]: -4.39% | inhibition [6]: 7.26% | inhibition [7]: 4.02% | inhibition [8]: 12.4% | inhibition [9]: 8.17% | inhibition [10]: 18.8% | inhibition [11]: 7.51% | inhibition [12]: -3.29% | inhibition [13]: 11.8% | inhibition [14]: 12.9% | inhibition [15]: 1.9% | inhibition [16]: -3.49% | inhibition [17]: 5.47% | inhibition [18]: 14.2% | inhibition [19]: 0.45% | inhibition [20]: 4.32% | inhibition [21]: -5.62% | inhibition [22]: 2.52% | inhibition [23]: -3.96% | inhibition [24]: 5.88% | inhibition [25]: 10.4% | inhibition [26]: 24.9% | inhibition [27]: 1.36% | inhibition [28]: 6.75% | inhibition [29]: 9.88% | inhibition [30]: 1.51% | inhibition [31]: 3.52% | inhibition [32]: 6.09% | inhibition [33]: 7.89% | inhibition [34]: -4.94% | inhibition [35]: 38% | inhibition [36]: -2.99% | inhibition [37]: -2.64% | inhibition [38]: 0.48% | inhibition [39]: 13% | inhibition (D(1A) dopamine receptor): 15% | inhibition [40]: 27% | inhibition [41]: 3% | inhibition [42]: 8% | inhibition [43]: -2% | inhibition [44]: 62% | inhibition [45]: 0%
